Key:
Format in all cases: cell-based
TLR7 = molecular target: T1, TLR7 (Homo sapiens, UniProt Q9NYK1); experiment: HEK293 cells transfected with TLR7 and NF-κB driven reporter gene; details: HEK293 transfectants
T1 construct: expressed in transfected cells; host or cells: HEK293
T1 sequence (Q9NYK1 27-1049): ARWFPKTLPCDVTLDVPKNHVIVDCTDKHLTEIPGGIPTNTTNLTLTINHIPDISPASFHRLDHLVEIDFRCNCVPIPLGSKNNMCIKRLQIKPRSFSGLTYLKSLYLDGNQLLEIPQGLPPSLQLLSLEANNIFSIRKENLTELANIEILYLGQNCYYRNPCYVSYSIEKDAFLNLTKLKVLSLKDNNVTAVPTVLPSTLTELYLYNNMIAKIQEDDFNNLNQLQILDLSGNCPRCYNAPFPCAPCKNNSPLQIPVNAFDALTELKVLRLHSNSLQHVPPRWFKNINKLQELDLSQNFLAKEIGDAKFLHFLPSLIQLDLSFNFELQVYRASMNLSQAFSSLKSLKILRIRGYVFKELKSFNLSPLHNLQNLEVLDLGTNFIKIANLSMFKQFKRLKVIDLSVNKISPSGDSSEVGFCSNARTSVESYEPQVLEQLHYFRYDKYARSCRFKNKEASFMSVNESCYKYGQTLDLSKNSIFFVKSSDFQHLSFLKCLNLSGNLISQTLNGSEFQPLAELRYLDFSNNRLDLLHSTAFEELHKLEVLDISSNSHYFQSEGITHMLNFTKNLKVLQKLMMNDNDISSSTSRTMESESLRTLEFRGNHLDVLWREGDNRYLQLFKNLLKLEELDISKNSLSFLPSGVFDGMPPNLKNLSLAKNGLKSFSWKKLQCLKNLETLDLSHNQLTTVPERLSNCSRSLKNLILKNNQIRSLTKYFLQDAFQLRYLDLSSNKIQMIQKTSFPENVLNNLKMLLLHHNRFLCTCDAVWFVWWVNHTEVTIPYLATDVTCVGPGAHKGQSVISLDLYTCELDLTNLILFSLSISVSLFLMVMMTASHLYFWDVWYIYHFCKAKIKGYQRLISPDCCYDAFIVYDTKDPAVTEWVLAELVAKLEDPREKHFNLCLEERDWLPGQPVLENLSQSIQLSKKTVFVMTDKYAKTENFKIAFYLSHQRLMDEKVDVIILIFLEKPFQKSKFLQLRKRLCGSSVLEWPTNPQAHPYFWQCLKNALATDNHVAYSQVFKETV
Method: (§1) The half-maximal effective concentration (EC50) for VTX-2337 activation of TLR8 and TLR7 was assessed in peripheral blood mononuclear cells (PBMCs) from 15 healthy donors and also in HEK293 cells transfected with TLR8 or TLR7 and an NF-κB driven reporter gene. […] Also it was observed that VTX-2337 had no activity on TLR2, TLR3, TLR4, TLR5, TLR6, or TLR9 at concentrations up to 25 μM.

TLR2 = TLR2 (Homo sapiens, UniProt O60603); experiment: Activity on TLR2; details: concentrations up to 25 μM
Method: as §1

TLR4 = TLR4 (Homo sapiens, UniProt O00206+Q9Y6Y9); experiment: Activity on TLR4; details: concentrations up to 25 μM
Method: as §1

TLR5 = TLR5 (Homo sapiens, UniProt O60602); experiment: Activity on TLR5; details: concentrations up to 25 μM
Method: as §1

TLR6 = TLR6 (Homo sapiens, UniProt O60603+Q9Y2C9); experiment: Activity on TLR6; details: concentrations up to 25 μM
Method: as §1

TLR9 = molecular target: T2, TLR9 (Homo sapiens, UniProt Q9NR96); experiment: Activity on TLR9; details: concentrations up to 25 μM
T2 sequence (Q9NR96 26-1032): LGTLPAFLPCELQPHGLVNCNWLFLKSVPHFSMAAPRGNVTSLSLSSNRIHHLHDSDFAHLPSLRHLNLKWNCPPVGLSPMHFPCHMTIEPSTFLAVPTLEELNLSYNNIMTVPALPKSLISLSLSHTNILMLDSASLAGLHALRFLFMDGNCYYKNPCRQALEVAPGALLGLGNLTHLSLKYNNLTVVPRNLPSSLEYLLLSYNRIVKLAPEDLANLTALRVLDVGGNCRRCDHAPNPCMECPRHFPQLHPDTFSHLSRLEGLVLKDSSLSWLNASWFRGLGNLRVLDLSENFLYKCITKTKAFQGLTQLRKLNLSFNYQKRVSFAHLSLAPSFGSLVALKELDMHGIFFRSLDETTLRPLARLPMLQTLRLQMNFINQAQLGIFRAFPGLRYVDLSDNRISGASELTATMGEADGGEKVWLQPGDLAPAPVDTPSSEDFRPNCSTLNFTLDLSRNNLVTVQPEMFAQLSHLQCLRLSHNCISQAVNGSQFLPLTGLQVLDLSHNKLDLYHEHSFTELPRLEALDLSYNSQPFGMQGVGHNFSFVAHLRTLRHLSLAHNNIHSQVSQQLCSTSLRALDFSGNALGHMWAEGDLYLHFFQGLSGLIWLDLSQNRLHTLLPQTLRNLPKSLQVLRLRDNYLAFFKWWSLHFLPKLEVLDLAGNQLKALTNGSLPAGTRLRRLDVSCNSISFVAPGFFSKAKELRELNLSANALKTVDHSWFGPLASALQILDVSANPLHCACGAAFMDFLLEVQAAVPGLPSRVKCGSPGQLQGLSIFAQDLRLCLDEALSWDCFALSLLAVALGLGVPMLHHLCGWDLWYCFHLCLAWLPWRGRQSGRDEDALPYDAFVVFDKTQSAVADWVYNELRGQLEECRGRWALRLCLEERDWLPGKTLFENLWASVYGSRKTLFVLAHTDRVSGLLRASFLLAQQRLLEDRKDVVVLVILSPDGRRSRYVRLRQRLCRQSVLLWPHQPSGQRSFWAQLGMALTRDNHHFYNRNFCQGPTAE
Method: as §1

Chain of TLR5 (O60602 21-858, species assumed): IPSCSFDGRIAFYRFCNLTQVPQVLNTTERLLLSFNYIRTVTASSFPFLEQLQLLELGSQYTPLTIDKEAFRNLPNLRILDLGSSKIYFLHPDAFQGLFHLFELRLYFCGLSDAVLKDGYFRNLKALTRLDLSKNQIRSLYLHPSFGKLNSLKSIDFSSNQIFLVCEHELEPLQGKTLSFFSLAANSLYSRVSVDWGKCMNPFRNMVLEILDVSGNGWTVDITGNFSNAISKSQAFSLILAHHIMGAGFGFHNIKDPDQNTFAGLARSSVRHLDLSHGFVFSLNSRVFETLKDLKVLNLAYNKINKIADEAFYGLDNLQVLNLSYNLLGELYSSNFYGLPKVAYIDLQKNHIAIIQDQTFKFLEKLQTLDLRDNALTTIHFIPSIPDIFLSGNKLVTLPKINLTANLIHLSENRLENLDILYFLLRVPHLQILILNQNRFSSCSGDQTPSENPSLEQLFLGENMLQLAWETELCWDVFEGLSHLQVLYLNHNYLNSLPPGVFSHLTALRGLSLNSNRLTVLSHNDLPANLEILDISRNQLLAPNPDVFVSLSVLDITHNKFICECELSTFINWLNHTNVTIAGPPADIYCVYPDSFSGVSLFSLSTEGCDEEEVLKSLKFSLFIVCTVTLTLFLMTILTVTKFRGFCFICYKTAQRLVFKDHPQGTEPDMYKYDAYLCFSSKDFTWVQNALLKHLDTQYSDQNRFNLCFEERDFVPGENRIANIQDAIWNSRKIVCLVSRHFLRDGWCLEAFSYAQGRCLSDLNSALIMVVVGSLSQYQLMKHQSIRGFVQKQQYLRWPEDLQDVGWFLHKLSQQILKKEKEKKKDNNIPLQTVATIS
Chain of TLR6 (Q9Y2C9 32-796, species assumed): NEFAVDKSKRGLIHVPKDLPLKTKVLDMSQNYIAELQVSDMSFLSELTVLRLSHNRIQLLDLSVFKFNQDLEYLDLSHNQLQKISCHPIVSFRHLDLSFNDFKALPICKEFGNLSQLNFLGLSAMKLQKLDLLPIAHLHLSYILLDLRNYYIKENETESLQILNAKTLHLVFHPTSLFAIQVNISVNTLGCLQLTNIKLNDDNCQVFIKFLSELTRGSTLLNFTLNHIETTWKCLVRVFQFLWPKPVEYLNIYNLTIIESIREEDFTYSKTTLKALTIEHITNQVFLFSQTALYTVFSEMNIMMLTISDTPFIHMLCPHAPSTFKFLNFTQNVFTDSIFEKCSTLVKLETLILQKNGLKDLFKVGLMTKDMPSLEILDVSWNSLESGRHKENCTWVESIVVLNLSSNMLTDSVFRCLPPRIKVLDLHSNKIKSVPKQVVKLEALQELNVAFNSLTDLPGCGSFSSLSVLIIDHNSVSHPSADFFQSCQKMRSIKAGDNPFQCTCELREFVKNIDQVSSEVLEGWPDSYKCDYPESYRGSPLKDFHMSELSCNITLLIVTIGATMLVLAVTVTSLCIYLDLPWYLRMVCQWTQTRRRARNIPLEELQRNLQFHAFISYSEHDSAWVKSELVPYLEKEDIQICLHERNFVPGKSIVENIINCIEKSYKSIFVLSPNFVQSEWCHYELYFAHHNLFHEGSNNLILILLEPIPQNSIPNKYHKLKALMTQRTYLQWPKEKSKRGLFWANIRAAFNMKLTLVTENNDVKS
Chain of TLR6 (O60603 21-784, species assumed): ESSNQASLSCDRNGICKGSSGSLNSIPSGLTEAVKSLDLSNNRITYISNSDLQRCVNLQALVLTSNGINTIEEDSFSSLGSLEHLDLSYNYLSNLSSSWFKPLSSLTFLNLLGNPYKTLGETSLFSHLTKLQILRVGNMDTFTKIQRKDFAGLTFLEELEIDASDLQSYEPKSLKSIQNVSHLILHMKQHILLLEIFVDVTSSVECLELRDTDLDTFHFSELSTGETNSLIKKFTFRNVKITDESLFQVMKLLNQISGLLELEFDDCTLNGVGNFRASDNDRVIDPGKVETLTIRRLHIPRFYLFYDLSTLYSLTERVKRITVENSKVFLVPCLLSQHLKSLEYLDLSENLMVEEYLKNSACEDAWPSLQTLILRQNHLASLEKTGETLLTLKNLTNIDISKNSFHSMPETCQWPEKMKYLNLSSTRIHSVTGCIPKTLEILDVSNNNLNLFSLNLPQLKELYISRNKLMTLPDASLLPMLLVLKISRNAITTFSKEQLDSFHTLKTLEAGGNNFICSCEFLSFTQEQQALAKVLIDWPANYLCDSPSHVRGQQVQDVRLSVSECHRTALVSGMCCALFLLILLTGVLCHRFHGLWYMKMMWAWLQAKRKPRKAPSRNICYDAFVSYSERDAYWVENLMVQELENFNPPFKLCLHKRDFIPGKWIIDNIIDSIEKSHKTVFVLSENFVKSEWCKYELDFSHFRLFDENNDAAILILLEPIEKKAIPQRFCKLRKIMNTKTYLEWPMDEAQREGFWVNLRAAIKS
Chain of TLR4 (O00206 24-839, species assumed): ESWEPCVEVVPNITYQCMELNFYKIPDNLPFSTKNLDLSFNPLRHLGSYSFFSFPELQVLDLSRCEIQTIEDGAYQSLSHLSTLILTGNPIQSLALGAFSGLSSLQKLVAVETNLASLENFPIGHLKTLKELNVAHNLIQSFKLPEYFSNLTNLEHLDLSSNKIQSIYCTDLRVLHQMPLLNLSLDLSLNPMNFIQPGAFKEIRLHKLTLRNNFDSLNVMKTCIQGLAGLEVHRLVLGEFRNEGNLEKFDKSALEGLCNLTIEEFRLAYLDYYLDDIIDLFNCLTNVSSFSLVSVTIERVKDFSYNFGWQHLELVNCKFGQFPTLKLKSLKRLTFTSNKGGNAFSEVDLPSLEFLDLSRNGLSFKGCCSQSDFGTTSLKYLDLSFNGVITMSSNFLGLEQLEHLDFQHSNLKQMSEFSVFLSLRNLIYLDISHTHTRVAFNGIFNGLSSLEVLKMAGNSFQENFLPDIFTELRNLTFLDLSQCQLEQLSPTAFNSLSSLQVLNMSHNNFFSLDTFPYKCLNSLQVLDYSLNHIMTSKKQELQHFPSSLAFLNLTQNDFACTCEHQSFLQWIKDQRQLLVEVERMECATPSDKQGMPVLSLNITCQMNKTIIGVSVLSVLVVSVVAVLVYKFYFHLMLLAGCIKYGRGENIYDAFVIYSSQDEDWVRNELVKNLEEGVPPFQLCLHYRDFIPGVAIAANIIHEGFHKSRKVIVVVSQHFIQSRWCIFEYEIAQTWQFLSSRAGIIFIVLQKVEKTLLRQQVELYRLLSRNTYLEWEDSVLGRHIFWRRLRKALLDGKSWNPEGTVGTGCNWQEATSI
Chain of TLR4 (Q9Y6Y9 17-160 limits assumed, species assumed): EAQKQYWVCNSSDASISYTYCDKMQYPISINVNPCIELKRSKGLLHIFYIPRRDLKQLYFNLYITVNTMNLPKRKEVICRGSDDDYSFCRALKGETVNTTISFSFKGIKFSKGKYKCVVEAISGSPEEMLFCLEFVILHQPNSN
Chain of TLR2 (O60603 21-784, species assumed): as the sequence (O60603 21-784, species assumed) above

## CCCN(CCC)C(=O)C1=Cc2ccc(-c3ccc(C(=O)N4CCCC4)cc3)cc2N=C(N)C1 [VTX-2337, 2-amino-N,N-dipropyl-8-(4-(pyrrolidine-1-carbonyl)phenyl)-3H-benzo[b]azepine-4-carboxamide]
TLR7
  EC50: 2 µM
TLR2
  activity on TLR2: no activity
TLR4
  activity on TLR4: no activity
TLR5
  activity on TLR5: no activity
TLR6
  activity on TLR6: no activity
TLR9
  activity on TLR9: no activity
